Measured values: patent US20090124635A1, “CHEMICAL COMPOUNDS” (priority 2005, published 2009)

Tested on: HIV-1 fusion
Assay: gp160 induced cell-cell fusion assay (HeLa P4 / CHO-Tat10 cell lines)
Format: cell-based
Settings: Human immunodeficiency virus 1, HeLaP4, read-out: IC50 against HIV-1 fusion
Experimental: The gp160 induced cell-cell fusion assay uses a HeLa P4 cell line and a CHO-Tat10 cell line.
The HeLa P4 cell line expresses CCR5 and CD4 and has been transfected with HIV-1 LTR-β-Galactosidase. The media for this cell line is Dulbecco modified eagle's medium (D-MEM) (without L-glutamine) containing 10% foetal calf serum (FCS), 2 mM L-glutamine penicillin/streptomycin (Pen/Strep; 100 U/mL penicillin+[…] streptomycin), and 1 μg/ml puromycin.
The CHO cell line is a Tat (transcriptional trans activator)-expressing clone from a CHO JRR17.1 cell line that has been transfected with pTat puro plasmid. The media for this cell line is rich medium for mammalian cell culture originally developed at Roswell Park Memorial Institute RPMI1640 (without L-glutamine) containing 10% FCS, 2 mM L-glutamine, 0.5 mg/ml Hygromycin B and 12 μg/ml puromycin. The CHO JRR17.1 line expresses gp160 (JRFL) and is a clone that has been selected for its ability to fuse with a CCR5/CD4 expressing cell line.
Upon cell fusion, Tat present in the CHO cell is able to transactivate the HIV-1 long terminal repeat (LTR) present in the HeLa cell leading to the expression of the β-Galactosidase enzyme. This expression is then measured using a Fluor Ace™ β-Galactosidase reporter assay kit (Bio-Rad cat no. 170-3150). This kit is a quantitative fluorescent assay that determines the level of expression of β-galactosidase using 4-methylumbelliferul-galactopyranoside (MUG) as substrate. β-Galactosidase hydrolyses the fluorogenic substrate resulting in release of the fluorescent molecule 4-methylumbelliferone (4MU). Fluorescence of 4-methylumbelliferone is then measured on a fluorometer using an excitation wavelength of 360 nm and emission wavelength of 460 nm.
Compounds that inhibit fusion will give rise to a reduced signal and, following solubilisation in an appropriate solvent and dilution in culture medium, a dose-response curve for each compound can be used to calculate IC50 values.

| SMILES | IC50 [nM] |
| --- | --- |
| Cc1ccnc(C)c1C(=O)N1CCC(C)(N2CCC(N(Cc3ccccc3)C(=O)C3CC(F)(F)C3)CC2)CC1 [Example 1, N-benzyl-N-{1′-[(2,4-dimethylpyridin-3-yl)carbonyl]-4′-methyl-1,4′-bipiperidinyl-4-yl}-3,3-difluorocyclobutanecarboxamide] | 0.013 |
| Cc1ncnc(C)c1C(=O)N1C[C@H]2CC[C@@H](C1)[C@H]2N1CCC(N(Cc2ccccc2)C(=O)C2CC2)CC1 [Example 10, N-benzyl-N-(1-{(8-syn)-3-[(4,6-dimethylpyrimidin-5-yl)carbonyl]-3-azabicyclo}piperidin-4-yl)cyclopropanecarboxamide] | 516 |
| Cc1ncnc(C)c1C(=O)N1CCC(C)(N2CCC(N(Cc3ccccc3F)C(=O)C3CC(F)(F)C3)CC2)CC1 [Example 25, N-{1′-[(4,6-dimethylpyrimidin-5-yl)carbonyl]-4′-methyl-1,4′-bipiperidin-4-yl}-3,3-difluoro-N-(2-fluorobenzyl)cyclobutanecarboxamide] | 5.5 |
| Cc1ncnc(C)c1C(=O)N1CCC(C)(N2CCC(N(Cc3ccccc3)S(C)(=O)=O)CC2)CC1 [Example 29, N-benzyl-N-{1′-[(4,6-dimethylpyrimidin-5-yl)carbonyl]-4′-methyl-1,4′-bipiperidin-4-yl}methanesulfonamide] | 346 |
| Cc1ccnc(C)c1C(=O)N1CCC(C)(N2CCC(N(Cc3cccc(F)c3)C(=O)C3CC3)CC2)CC1 [Example 47, N-{1′-[(2,4-dimethylpyridin-3-yl)carbonyl]-4′-methyl-1,4′-bipiperidin-4-yl}-N-(3-fluorobenzyl)cyclopropanecarboxamide.2HCl] | 0.343 |
